{"source": "patent EP0563345B1", "about": "“NOVEL 4-ARYLPIPERAZINES AND 4-ARYLPIPERIDINES” (MCNEILAB, INC., priority 1991, dated 1993)", "key": {"[1]": {"biological_target": "T1, D-2 (dopamine-2) receptors (Rattus norvegicus, UniProt P61169)", "T1 construct": "The D2 assay employed a P2 fraction from the striatum, the ligand ^3H-spiperone at a concentration of 0.05 nM; from tissue; host or cells: rat striatum, P2 fraction (synaptosomal membranes), male Wistar rats", "T1 sequence (P61169 whole entry)": "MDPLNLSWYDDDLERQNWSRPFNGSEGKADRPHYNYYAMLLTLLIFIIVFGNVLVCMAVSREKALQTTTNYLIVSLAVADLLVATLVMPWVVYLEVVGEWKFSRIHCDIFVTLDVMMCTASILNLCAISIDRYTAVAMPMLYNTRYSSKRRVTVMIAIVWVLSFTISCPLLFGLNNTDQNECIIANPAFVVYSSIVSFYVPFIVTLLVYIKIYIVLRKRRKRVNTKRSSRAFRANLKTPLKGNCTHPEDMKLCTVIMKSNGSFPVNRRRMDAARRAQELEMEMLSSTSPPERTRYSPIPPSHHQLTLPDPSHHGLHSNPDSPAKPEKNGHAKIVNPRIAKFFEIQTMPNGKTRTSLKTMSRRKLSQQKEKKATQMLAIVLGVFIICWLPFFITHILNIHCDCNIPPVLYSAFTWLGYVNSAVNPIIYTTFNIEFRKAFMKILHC", "assay": "biochemical", "format": "binding, male, Wistar rats", "conditions": "rat striatum P2 fraction, 3H-spiperone 0.05 nM; read-out: Receptor Binding (Ki nM) D2", "procedure": "The dopamine D2 binding activity of compounds was determined using a P2 fraction (synaptosomal membranes) prepared from male, Wistar rats.\nThe data from this assay were analyzed by calculating the percent inhibition of the binding of the tritiated ligands by given concentrations of the test compound. Kl values, where given, were obtained from the logit analysis of concentration-inhibition curves."}, "[2]": {"tested_on": "Male Charles-River rats", "assay": "Rat Glass Bead Test (propulsive motility of the distal colon)", "format": "in vivo", "conditions": "IP, 1.0 mg/kg; mean expulsion time of glass bead", "method": "The rat glass bead test is used to evaluate the action of compounds on propulsive motility of the distal colon. Male Charles-River rats weighing 50-90 grams are fasted for at least 18 hours in individual cages with water provided. Groups of rats are then dosed by the indicated route at the appropriate pretreatment time. A 4 mm glass bead is then inserted 3.5 cm into the distal colon through the anus using a 4 mm diameter glass rod. Rats are then placed in open top glass jars and observed for 60 minutes. The time for expulsion of the bead is noted for each rat. Rats not expelling the bead after 60 minutes are necropsied and the presence of the bead in the colon confirmed. […] Statistical analysis is done using one way analysis of variance and Fisher's LSD comparison. A probability of less than 0.05 is considered to be statistically significant."}, "[3]": {"assay": "Overall statement on the other non-antipsychotic screens", "conditions": "screens in which they have been tested to date", "from_the_text": "(§1) The antipsychotic activity of the compounds of the invention may be determined by the Block of Conditioned Avoidance Responding (Rat) test (CAR), references being Cook, L. and E. Weidley in Ann."}, "[4]": {"tested_on": "Male, Fischer 344 rats", "assay": "Block of Conditioned Avoidance Responding (Rat) test (CAR)", "in_short": "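Trained rats at 90% avoidance ran 60-trial sessions with a 15-sec light/tone conditioned stimulus, then a 0.7 mA shock. Vehicle was given on Day 1 and test compound on Day 2, with matched route and pretreatment time. The % change in CAR versus Day 1 and % escape failures are group means, with escape loss at 5 mg/kg unless noted.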"}, "[5]": {"assay": "Overall statement on the antipsychotic screens (CAR test and D-2 affinity)", "conditions": "as far as tested", "from_the_text": "as §1"}}}
{"compound": "COc1cccc(OC)c1N1CCN(Cc2cccc(C(=O)N3CCCCC3)c2)CC1", "note": "[Compound 48]", "values": [{"measurement": "Ki", "setting": "[1]", "result": "> 1000", "unit": "nM"}, {"measurement": "Glass bead expulsion time", "setting": "[2]", "result": 14, "unit": "min"}, {"measurement": "activity in any of the other non-antipsychotic screens", "setting": "[3]", "result": "not exhibited activity"}, {"measurement": "CAR 15 mg/kg IP Administration (% change CAR)", "setting": "[4]; 15 mg/kg IP, negative number = blockade of CAR", "result": -1, "unit": "%"}, {"measurement": "(Escape Loss) % failures to escape", "setting": "[4]; at CAR 15 mg/kg IP", "result": 1, "unit": "%"}, {"measurement": "potential antipsychotic activity in either of the screens", "setting": "[5]", "result": "not exhibited potential antipsychotic activity"}]}
